Each molecule was assayed on A2780 ovarian cancer cell line (assay: Cell growth inhibition, A2780 ovarian cancer cell line). Details: A2780; repeated experiments with drug-resistant variants; 24 hours exposure; read-out: IC50 A2780.
Type: cell-based
Experimental: (§1) The compounds are tested on 24 -well trays. Cells growing in a flask are harvested just before they become confluent, counted using a haemocytometer and diluted down with media to a concentration of 1×10^4 cells per ml. The cells are then seeded in the 24 -well trays at a density of […] (i.e. 1 ml of the diluted cell suspension is added to each well). The cells are then left to plate down and grow for 72 hours before adding the compounds of the invention.
(§2) The Ru complexes are weighed out and made up to a concentration of is 1 mg/ml with deionised water then sonicated, until they go into solution. The appropriate volume of the Ru solution is added to 5 ml of media to make it up to a concentration of 100 μM for each drug. This 100 μM solution is then serially diluted to make up the 10 μM, 1 μM and 0.1 μM solutions.
(§3) The media is removed from the cells and replaced with 1 ml of the media dosed with drug. Each concentration is done in duplicate. A set of control wells are left on each plate, containing media without drug.
(§4) The cells are left exposed to the drugs for 24 hours and then washed with phosphate buffered saline before fresh media is added.
(§5) They are allowed to grow on for a further 3 days before being counted using a Coulter counter.
(§6) • Media is removed and 1 ml of PBS is added to the cells. • 250 μl of trypsin is added and cells left in incubator for a few minutes to allow the monolayers to detach. • Once trypsinised, 250 μl of media is added to each well to neutralise the trypsin. 200 μl of this suspension is added to 10 ml of NaCl for counting. 2. Results
Using the above protocol, a number of compounds of the invention were tested on A2780 ovarian cancer cell line.

Molecule	IC50 [µM]
C1=CCC2=C(C1)Cc1ccccc1C2.CC#N.CC#N.F[P-](F)(F)(F)(F)F.[Cl][Ru+] [Example 3, [(η^6-C14H14)RuCl(CH3CN)2]^+PF6^−]	116
[Cl][Ru][Cl].c1ccc2c(c1)Cc1ccccc1C2 [Example 5, [(η^6-C14H12)RuCl2(DMSO)]]	126
C1=CCC2=C(C1)Cc1ccccc1C2.[Cl][Ru][Cl] [Example 2, [(η^6-C14H14)RuCl2(DMSO)]]	94
C1=CCC2=C(C1)Cc1ccccc1C2.F[P-](F)(F)(F)(F)F.NCCN.[Cl][Ru+] [Example 1, [(η^6-C14H14)RuCl(en)]^+PF6]	0.5
F[P-](F)(F)(F)(F)F.NCCN.[Cl][Ru+].c1ccc2c(c1)Cc1ccccc1C2 [Example 4, [η^6-C14H12)RuCl(en)]^+PF6−]	2
CC#N.CC#N.F[P-](F)(F)(F)(F)F.[Cl][Ru+].c1ccc2c(c1)Cc1ccccc1C2 [Example 6, [(η^6-C14H12)RuCl(CH3CN)2]^+PF6^−]	192

Same assay, conditions: A2780 ovarian cancer cell line; 24 hours drug exposure, counted after a further 3 days; first experiment; read-out: IC50

Molecule	IC50 [µM]
C1=CCC2=C(C1)Cc1ccccc1C2.CC#N.CC#N.F[P-](F)(F)(F)(F)F.[Cl][Ru+] [Example 3, [(η^6-C14H14)RuCl(CH3CN)2]^+PF6^−]	177
{[(η^6-C14H14)RuCl]2[H2N(CH2)2NH(CH2)6NH(CH2)2NH2−N,N′N″,N′″]}^2+.2PF6^− [Example 7]	6
[Cl][Ru][Cl].c1ccc2c(c1)Cc1ccccc1C2 [Example 5, [(η^6-C14H12)RuCl2(DMSO)]]	68
C1=CCC2=C(C1)Cc1ccccc1C2.[Cl][Ru][Cl] [Example 2, [(η^6-C14H14)RuCl2(DMSO)]]	94
C1=CCC2=C(C1)Cc1ccccc1C2.F[P-](F)(F)(F)(F)F.NCCN.[Cl][Ru+] [Example 1, [(η^6-C14H14)RuCl(en)]^+PF6]	0.5
F[P-](F)(F)(F)(F)F.NCCN.[Cl][Ru+].c1ccc2c(c1)Cc1ccccc1C2 [Example 4, [η^6-C14H12)RuCl(en)]^+PF6−]	0.3
CC#N.CC#N.F[P-](F)(F)(F)(F)F.[Cl][Ru+].c1ccc2c(c1)Cc1ccccc1C2 [Example 6, [(η^6-C14H12)RuCl(CH3CN)2]^+PF6^−]	315

Each molecule was assayed on A2780 cis, variant of A2780 showing resistance to cis-platin (assay: Cell growth inhibition, A2780 cis (cis-platin resistant variant)). Details: 24 hours exposure.
Type: cell-based
Experimental: as §1, §2, §3, §4, §5, §6
(§7) The experiments were repeated to investigate the effect of the compounds of the invention on drag-resistant variants of the A2780 cell line.

Molecule	IC50 [nM]
C1=CCC2=C(C1)Cc1ccccc1C2.CC#N.CC#N.F[P-](F)(F)(F)(F)F.[Cl][Ru+] [Example 3, [(η^6-C14H14)RuCl(CH3CN)2]^+PF6^−]	2000
[Cl][Ru][Cl].c1ccc2c(c1)Cc1ccccc1C2 [Example 5, [(η^6-C14H12)RuCl2(DMSO)]]	2000
C1=CCC2=C(C1)Cc1ccccc1C2.[Cl][Ru][Cl] [Example 2, [(η^6-C14H14)RuCl2(DMSO)]]	493000
C1=CCC2=C(C1)Cc1ccccc1C2.F[P-](F)(F)(F)(F)F.NCCN.[Cl][Ru+] [Example 1, [(η^6-C14H14)RuCl(en)]^+PF6]	1000
F[P-](F)(F)(F)(F)F.NCCN.[Cl][Ru+].c1ccc2c(c1)Cc1ccccc1C2 [Example 4, [η^6-C14H12)RuCl(en)]^+PF6−]	16000
CC#N.CC#N.F[P-](F)(F)(F)(F)F.[Cl][Ru+].c1ccc2c(c1)Cc1ccccc1C2 [Example 6, [(η^6-C14H12)RuCl(CH3CN)2]^+PF6^−]	2000

The molecules below were run on A2780 AD, variant of A2780 showing resistance to adriomycin (assay: Cell growth inhibition, A2780 AD (adriomycin resistant variant)). Details: multidrug resistant, over expresses p glycoprotein, 24 hours exposure.
Type: cell-based
Experimental: as §1, §2, §3, §4, §5, §6, §7

Molecule	IC50 [µM]
C1=CCC2=C(C1)Cc1ccccc1C2.CC#N.CC#N.F[P-](F)(F)(F)(F)F.[Cl][Ru+] [Example 3, [(η^6-C14H14)RuCl(CH3CN)2]^+PF6^−]	2
[Cl][Ru][Cl].c1ccc2c(c1)Cc1ccccc1C2 [Example 5, [(η^6-C14H12)RuCl2(DMSO)]]	5
C1=CCC2=C(C1)Cc1ccccc1C2.[Cl][Ru][Cl] [Example 2, [(η^6-C14H14)RuCl2(DMSO)]]	4
C1=CCC2=C(C1)Cc1ccccc1C2.F[P-](F)(F)(F)(F)F.NCCN.[Cl][Ru+] [Example 1, [(η^6-C14H14)RuCl(en)]^+PF6]	328
F[P-](F)(F)(F)(F)F.NCCN.[Cl][Ru+].c1ccc2c(c1)Cc1ccccc1C2 [Example 4, [η^6-C14H12)RuCl(en)]^+PF6−]	104
CC#N.CC#N.F[P-](F)(F)(F)(F)F.[Cl][Ru+].c1ccc2c(c1)Cc1ccccc1C2 [Example 6, [(η^6-C14H12)RuCl(CH3CN)2]^+PF6^−]	0.9
